Reference: patent US12638448B2, “Compositions, methods, and kits for detection of lipolytic activity” (priority 2019, dated 2026)
Where “and” joins values, the source holds several entries; their conditions need not be identical. Equal entries are not always repeated.

Experiments:
[1] = cited from earlier work
[2] = 4MuO auto-hydrolysis (no enzyme), 4Mu fluorescence; assay type: physicochemical
[3] = molecular target: T1, porcine pancreatic lipase (PPL) (Sus scrofa, UniProt P00591); assay: 4MuO lipase assay with HCMB, sample containing PPL (Examples 1B-6B, 10); assay type: biochemical
T1 construct: purchased Sigma; host or cells: porcine pancreas
T1 sequence (P00591 1-450): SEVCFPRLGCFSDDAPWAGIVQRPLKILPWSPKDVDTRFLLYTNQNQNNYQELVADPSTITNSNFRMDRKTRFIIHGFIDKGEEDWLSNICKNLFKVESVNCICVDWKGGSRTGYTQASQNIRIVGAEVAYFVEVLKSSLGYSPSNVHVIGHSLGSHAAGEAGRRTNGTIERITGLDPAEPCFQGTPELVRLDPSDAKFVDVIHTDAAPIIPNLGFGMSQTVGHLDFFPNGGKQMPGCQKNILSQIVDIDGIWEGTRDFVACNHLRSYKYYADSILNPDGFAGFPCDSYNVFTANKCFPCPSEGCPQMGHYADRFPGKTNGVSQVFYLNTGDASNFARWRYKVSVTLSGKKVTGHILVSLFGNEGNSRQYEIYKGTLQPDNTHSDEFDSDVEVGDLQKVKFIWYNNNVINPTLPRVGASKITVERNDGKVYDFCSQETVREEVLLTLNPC

[4] = molecular target: T2, Porcine pancreas lipase (PPL) (Sus scrofa, UniProt P00591); assay: 4MuO lipase assay with porcine pancreas lipase (Examples 1A-7); conditions: for concentration at which product inhibition of lipase activity was observed: 800 nM PPL
T2 sequence (P00591 1-450): T1 sequence (P00591 1-450)

LipC12 lipase = conditions: as solvent; cited from earlier work
[5] = system: cell culture harvest fluid (CCHF) containing a mixture of lipases; assay type: biochemical, CHO cell line; conditions: negative controls, 30 min pre-incubation, 10 mg/mL mAb1, 0.02% PS80, 0.5% CCHF
[6] = as organic solvent of the assay
[7] = 10.4 mM TRIS pH 8.1, 500 nM PPL, 22 hours

For Cc1cc(=O)oc2cc(O)ccc12 [4Mu, 4-methylumbelliferone], the pKa [1] is given as “approximately 7.7”.
With CCCCCCCC/C=C\CCCCCCCC(=O)Oc1ccc2c(C)cc(=O)oc2c1 [4MuO, 4-methylumbelliferyl oleate, reference compound] the “factor by which autohydrolysis (AH) decreased” value ([2]; lowering the pH from 8 to 6 (TRIS / BIS-TRIS)) was ~5.
For OCCN(CCO)C(CO)(CO)CO [BIS-TRIS], the “Auto-Hydrolysis (AH)” value ([2]; pH 6) was 0.16 µM and 0.13 µM and 0.11 µM.
With [Ca+2].[Cl-].[Cl-] [CaCl2, calcium chloride] the “Auto-Hydrolysis (AH)” value ([2]; 0.104 mM CaCl2) was 0.15 µM, the “Auto-Hydrolysis (AH)” value ([2]; 1.04 mM CaCl2) was 0.16 µM and the “Auto-Hydrolysis (AH)” value ([2]; 10.4 mM CaCl2) was 0.16 µM. The “PPL activity (in words)” value ([3]; highest concentration tested (52 mM CaCl2 in HCMB)) was “slightly decreased”, the “Enzymatic Hydrolysis (EH − AH)” value ([4]; 0.104 mM CaCl2, 500 nM PPL) was 0.66 µM and the “Total Hydrolysis (AH + EH)” value ([4]; 0.104 mM CaCl2, 500 nM PPL) was 0.81 µM. The “Enzymatic Hydrolysis (EH − AH)” value ([4]; 1.04 mM CaCl2, 500 nM PPL) was 0.73 µM, the “Total Hydrolysis (AH + EH)” value ([4]; 1.04 mM CaCl2, 500 nM PPL) was 0.90 µM and the “Enzymatic Hydrolysis (EH − AH)” value ([4]; 10.4 mM CaCl2, 500 nM PPL) was 0.69 µM. The “Total Hydrolysis (AH + EH)” value ([4]; 10.4 mM CaCl2, 500 nM PPL) was 0.85 µM.
With C[S+](C)[O-] [DMSO, dimethyl sulfoxide] the “Auto-Hydrolysis (AH)” value [2, 6] was 0.14 µM.
In the case of CC(C)O [IPA, isopropanol], the “Auto-Hydrolysis (AH)” value [2, 6] is reported as 0.09 µM.
With CCCCCCCCCCCC(=O)O [Lauric Acid, lauric acid, reference compound] the “Auto-Hydrolysis (AH)” value ([2]; 8.5 μM Lauric Acid (0.001% PS20 theoretically fully degraded)) was 0.15 µM, the “Auto-Hydrolysis (AH)” value ([2]; 850 μM Lauric Acid (0.1% PS20 theoretically fully degraded)) was 0.08 µM and the “concentration at which product inhibition of lipase activity was observed” value [4] was “above 8.5 μM”.
In the case of CO [MeOH, methanol], the “Auto-Hydrolysis (AH)” value [2, 6] is listed as 0.13 µM and the “factor of increase of LipC12 lipase activity” value (LipC12 lipase) is listed as > 10.
With [Cl-].[Na+] [NaCl, sodium chloride] the “Auto-Hydrolysis (AH)” value ([2]; 40 mM NaCl) was 0.25 µM, the “Auto-Hydrolysis (AH)” value ([2]; 120 mM NaCl) was 0.29 µM and the “Auto-Hydrolysis (AH)” value ([2]; 360 mM NaCl) was 0.28 µM. The “PPL activity (in words)” value ([3]; highest concentration tested (1800 mM NaCl in HCMB)) was “slightly decreased”, the “Enzymatic Hydrolysis (EH − AH)” value ([4]; 40 mM NaCl, 500 nM PPL) was 0.57 µM and the “Total Hydrolysis (AH + EH)” value ([4]; 40 mM NaCl, 500 nM PPL) was 0.82 µM. For the same compound, the “Enzymatic Hydrolysis (EH − AH)” value ([4]; 120 mM NaCl, 500 nM PPL) was 0.62 µM, the “Total Hydrolysis (AH + EH)” value ([4]; 120 mM NaCl, 500 nM PPL) was 0.91 µM and the “Enzymatic Hydrolysis (EH − AH)” value ([4]; 360 mM NaCl, 500 nM PPL) was 0.59 µM. For the same compound, the “Total Hydrolysis (AH + EH)” value ([4]; 360 mM NaCl, 500 nM PPL) was 0.86 µM.
In the case of CCCCCCCC/C=C\CCCCCCCC(=O)O [Oleic Acid, oleic acid, reference compound], the “Auto-Hydrolysis (AH)” value ([2]; 7.8 μM Oleic Acid (0.001% PS80 theoretically fully degraded)) is reported as 0.11 µM, the “Auto-Hydrolysis (AH)” value ([2]; 780 μM Oleic Acid (0.1% PS80 theoretically fully degraded)) is reported as 0.06 µM and the “concentration at which product inhibition of lipase activity was observed” value [4] is reported as 780 µM.
For NC(CO)(CO)CO [TRIS], the “Auto-Hydrolysis (AH)” value ([2]; 10.4 mM TRIS pH 8.1, 22 hours) was 0.22 µM, the “Enzymatic Hydrolysis (EH − AH)” value [4, 7] was 1.29 µM and the “Total Hydrolysis (AH + EH)” value [4, 7] was 1.51 µM.
With CCCCCCCCCCC[C@@H](C[C@@H]1OC(=O)[C@H]1CCCCCC)OC(=O)[C@H](CC(C)C)NC=O [orlistat, (S)-2-formylamino-4-methyl-pentanoic acid (S)-1-[[(2S,3S)-3-hexyl-4-oxo-2-oxetanyl]methyl]-dodecyl ester, reference compound] the inhibition at 25 µM ([3]; 25 μM, 30 min pre-incubation, 0.0335 mg/mL PPL, read-out: reduction of enzyme activity in pre-treated sample compared to co-addition of substrate and inhibitor) was ~50%, the “PPL activity in protein-containing formulation (in words)” value ([3]; negative controls, 30 min pre-incubation, 10 mg/mL mAb1, 0.02% PS80, 0.025 mg/mL PPL) was “inhibited” and the “CCHF lipase activity in protein-containing formulation (in words)” value [5] was “inhibited”. For the same compound, the “lipolytic activity (in words)” value ([4]; pre-treatment (30 minutes) at 25 μM, 500 nM PPL) was “completely abolished”.
